Columns and labels:
Type in all cases: in vivo
[1] = tested on: Diabrotica Balteata (Corn Root Worm); experiment: Example B1: Diabrotica balteata (corn root worm), maize sprouts sprayed, L2 larvae; settings: 96 h, application rate of 200 ppm, 4 days after infestation, L2 larvae, read-out: control in at least one of the two categories (mortality or growth inhibition)
In short: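 Spray test: maize sprouts on agar, aqueous dilutions of 10′000 ppm DMSO stock; after drying, 6–10 L2 larvae/well. Read-out at 4 d post-infestation: mortality and growth inhibition vs untreated.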

[2] = tested on: Chilo suppressalis (Striped Rice Stemborer); experiment: Example B3: Chilo suppressalis (striped rice stemborer), artificial diet, L2 larvae; settings: 144 h, application rate of 200 ppm, 6 days after infestation, L2 larvae, read-out: control in at least one of the three categories (mortality, anti-feedant effect, or growth inhibition)
In short: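 Scoring covers mortality, anti-feedant effect and growth inhibition at 6 days post-infestation, relative to untreated diet, with activity defined as at least one category above untreated. Test solutions were aqueous, made from 10'000 ppm DMSO stocks, and applied to artificial diet before drying and infestation with L2 larvae.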

[3] = tested on: Plutella xylostella (Diamond Back Moth); experiment: Example B4: Plutella xylostella (diamond back moth), artificial diet, eggs, 24-well; settings: 192 h, application rate of 200 ppm, 8 days after infestation, eggs, read-out: control in at least one of the two categories (mortality or growth inhibition)
Experimental: 24-well microtiter plates with artificial diet were treated with aqueous test solutions prepared from 10′000 ppm DMSO stock solutions by pipetting. After drying, Plutella eggs were pipetted through a plastic stencil onto a gel blotting paper and the plate was closed with it. The samples were assessed for mortality and growth inhibition in comparison to untreated samples 8 days after infestation.

[4] = tested on: Spodoptera littoralis (Egyptian Cotton Leaf Worm); experiment: Example B7: Spodoptera littoralis (Egyptian cotton leaf worm), cotton leaf discs sprayed, L1 larvae; settings: foliar, 72 h, application rate of 200 ppm, 3 days after infestation, L1 larvae, read-out: control in at least one of the three categories (mortality, anti-feedant effect, or growth inhibition)
In short: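 Cotton leaf discs on agar were sprayed with aqueous test solutions made from 10′000 ppm DMSO stocks, dried, then infested with five L1 larvae. Mortality, anti-feeding effect and growth inhibition were scored against untreated discs 3 days after infestation; control means any category exceeds untreated.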

CC(c1ncnn1-c1ccc(F)cn1)N(C)c1ncnc2c(Cl)cc(C(F)(F)F)cc12 (stereo not drawn) [P.232, 8-chloro-N-[1-[2-(5-fluoro-2-pyridyl)-1,2,4-triazol-3-yl]ethyl]-N-methyl-6-(trifluoromethyl)quinazolin-4-amine]
≥ 80%: percent control (mortality or growth inhibition) at 200 ppm [1] | percent control (mortality, anti-feedant effect or growth inhibition) at 200 ppm [2] | percent control (mortality or growth inhibition) at 200 ppm [3] | percent control (mortality, anti-feedant effect or growth inhibition) at 200 ppm [4]

CC(Nc1ncnc2c(C(F)(F)F)cc(Cl)cc12)c1ncnn1-c1ccc(OC(F)F)cn1 (stereo not drawn) [P.235, 6-chloro-N-[1-[2-[5-(difluoromethoxy)-2-pyridyl]-1,2,4-triazol-3-yl]ethyl]-8-(trifluoromethyl)quinazolin-4-amine]
≥ 80%: percent control (mortality or growth inhibition) at 200 ppm [1] | percent control (mortality, anti-feedant effect or growth inhibition) at 200 ppm [2] | percent control (mortality or growth inhibition) at 200 ppm [3] | percent control (mortality, anti-feedant effect or growth inhibition) at 200 ppm [4]

CC(c1ncnn1-c1ccc(Br)cn1)N(C)c1ncnc2c(C(F)(F)F)cc(Br)cc12 (stereo not drawn) [P.237, 6-bromo-N-[1-[2-(5-bromo-2-pyridyl)-1,2,4-triazol-3-yl]ethyl]-N-methyl-8-(trifluoromethyl)quinazolin-4-amine]
≥ 80%: percent control (mortality or growth inhibition) at 200 ppm [1] | percent control (mortality, anti-feedant effect or growth inhibition) at 200 ppm [2] | percent control (mortality or growth inhibition) at 200 ppm [3] | percent control (mortality, anti-feedant effect or growth inhibition) at 200 ppm [4]

CC(c1ncnn1-c1ccc(Br)cn1)N(C)c1ncnc2c(C(F)(F)F)cc(Cl)cc12 (stereo not drawn) [P.238, N-[1-[2-(5-bromo-2-pyridyl)-1,2,4-triazol-3-yl]ethyl]-6-chloro-N-methyl-8-(trifluoromethyl)quinazolin-4-amine]
≥ 80%: percent control (mortality or growth inhibition) at 200 ppm [1] | percent control (mortality, anti-feedant effect or growth inhibition) at 200 ppm [2] | percent control (mortality or growth inhibition) at 200 ppm [3] | percent control (mortality, anti-feedant effect or growth inhibition) at 200 ppm [4]

CC(c1ncnn1-c1ccc(Br)cn1)N(C)c1ncnc2c(Br)cc(C(F)(F)F)cc12 (stereo not drawn) [P.239, 8-bromo-N-[1-[2-(5-bromo-2-pyridyl)-1,2,4-triazol-3-yl]ethyl]-N-methyl-6-(trifluoromethyl)quinazolin-4-amine]
≥ 80%: percent control (mortality or growth inhibition) at 200 ppm [1] | percent control (mortality, anti-feedant effect or growth inhibition) at 200 ppm [2] | percent control (mortality or growth inhibition) at 200 ppm [3] | percent control (mortality, anti-feedant effect or growth inhibition) at 200 ppm [4]

CC(c1ncnn1-c1ccc(Br)cn1)N(C)c1ncnc2c(Cl)cc(C(F)(F)F)cc12 (stereo not drawn) [P.240, N-[1-[2-(5-bromo-2-pyridyl)-1,2,4-triazol-3-yl]ethyl]-8-chloro-N-methyl-6-(trifluoromethyl)quinazolin-4-amine]
≥ 80%: percent control (mortality or growth inhibition) at 200 ppm [1] | percent control (mortality, anti-feedant effect or growth inhibition) at 200 ppm [2] | percent control (mortality or growth inhibition) at 200 ppm [3] | percent control (mortality, anti-feedant effect or growth inhibition) at 200 ppm [4]

CC(c1ncnn1-c1ccc(Br)cn1)N(C)c1ncnc2c(C(F)(F)F)cc(C(F)(F)F)cc12 (stereo not drawn) [P.241, N-[1-[2-(5-bromo-2-pyridyl)-1,2,4-triazol-3-yl]ethyl]-N-methyl-6,8-bis(trifluoromethyl)quina-zolin-4-amine]
≥ 80%: percent control (mortality or growth inhibition) at 200 ppm [1] | percent control (mortality, anti-feedant effect or growth inhibition) at 200 ppm [2] | percent control (mortality or growth inhibition) at 200 ppm [3] | percent control (mortality, anti-feedant effect or growth inhibition) at 200 ppm [4]

CC(Nc1ncnc2c(OC(F)F)cc(Br)cc12)c1ncnn1-c1ccc(C#N)cn1 (stereo not drawn) [P.244, 6-[5-[1-[[6-bromo-8-(difluoromethoxy)quinazo-lin-4-yl]amino]ethyl]-1,2,4-triazol-1-yl]pyridine-3-carbonitrile]
≥ 80%: percent control (mortality or growth inhibition) at 200 ppm [1] | percent control (mortality, anti-feedant effect or growth inhibition) at 200 ppm [2] | percent control (mortality or growth inhibition) at 200 ppm [3] | percent control (mortality, anti-feedant effect or growth inhibition) at 200 ppm [4]

CC(Nc1ncnc2c(OC(F)(F)F)cc(Br)cc12)c1ncnn1-c1ccc(C#N)cn1 (stereo not drawn) [P.247, 6-[5-[1-[[6-bromo-8-(trifluoromethoxy)quinazo-lin-4-yl]amino]ethyl]-1,2,4-triazol-1-yl]pyridine-3-carbonitrile]
≥ 80%: percent control (mortality or growth inhibition) at 200 ppm [1] | percent control (mortality, anti-feedant effect or growth inhibition) at 200 ppm [2] | percent control (mortality or growth inhibition) at 200 ppm [3] | percent control (mortality, anti-feedant effect or growth inhibition) at 200 ppm [4]

CC(c1nccnc1-c1ncccn1)N(C)c1ccnc2c(C(F)(F)F)cc(C(F)(F)F)cc12 (stereo not drawn) [P.249, N-methyl-N-[1-(3-pyrimidin-2-ylpyrazin-2-yl)ethyl]-6,8-bis(trifluoromethyl)quino-lin-4-amine]
≥ 80%: percent control (mortality or growth inhibition) at 200 ppm [1] | percent control (mortality, anti-feedant effect or growth inhibition) at 200 ppm [2] | percent control (mortality or growth inhibition) at 200 ppm [3] | percent control (mortality, anti-feedant effect or growth inhibition) at 200 ppm [4]

CC(c1ncnn1-c1ncccn1)N(C)c1nccc2c(C(F)(F)F)cc(C(F)(F)F)cc12 (stereo not drawn) [P.250, N-methyl-N-[1-(2-pyrimidin-2-yl-1,2,4-triazol-3-yl)ethyl]-5,7-bis(trifluoromethyl)isoquino-lin-1-amine]
≥ 80%: percent control (mortality or growth inhibition) at 200 ppm [1] | percent control (mortality, anti-feedant effect or growth inhibition) at 200 ppm [2] | percent control (mortality or growth inhibition) at 200 ppm [3] | percent control (mortality, anti-feedant effect or growth inhibition) at 200 ppm [4]

C[C@H](Nc1ccnc2c(C(F)(F)F)cc(C(F)(F)F)cc12)c1ncnn1-c1ccc(C#N)cn1 [P.251, 6-[5-[(1S)-1-[[6,8-bis(trifluoromethyl)-4-quinolyl]amino]ethyl]-1,2,4-triazol-1-yl]pyridine-3-carbonitrile]
≥ 80%: percent control (mortality or growth inhibition) at 200 ppm [1] | percent control (mortality, anti-feedant effect or growth inhibition) at 200 ppm [2] | percent control (mortality or growth inhibition) at 200 ppm [3] | percent control (mortality, anti-feedant effect or growth inhibition) at 200 ppm [4]

C[C@H](Nc1ccnc2c(C(F)(F)F)cc(Br)cc12)c1ncnn1-c1ccc(C#N)cn1 [P.252, 6-[5-[(1S)-1-[[6-bromo-8-(trifluoromethyl)-4-quinolyl]amino]ethyl]-1,2,4-triazol-1-yl]pyridine-3-carbonitrile]
≥ 80%: percent control (mortality or growth inhibition) at 200 ppm [1] | percent control (mortality, anti-feedant effect or growth inhibition) at 200 ppm [2] | percent control (mortality or growth inhibition) at 200 ppm [3] | percent control (mortality, anti-feedant effect or growth inhibition) at 200 ppm [4]

C[C@H](Nc1ccnc2c(C(F)(F)F)cc(Br)cc12)c1ncnn1-c1ncccn1 [P.253, 6-bromo-N-[(1S)-1-(2-pyrimidin-2-yl-1,2,4-triazol-3-yl)ethyl]-8-(trifluoromethyl)quinolin-4-amine]
≥ 80%: percent control (mortality or growth inhibition) at 200 ppm [1] | percent control (mortality, anti-feedant effect or growth inhibition) at 200 ppm [2] | percent control (mortality or growth inhibition) at 200 ppm [3] | percent control (mortality, anti-feedant effect or growth inhibition) at 200 ppm [4]

C[C@@H](c1ncnn1-c1ncccn1)N(C)c1ccnc2c(Br)cc(C(F)(F)F)cc12 [P.255, 8-bromo-N-methyl-N-[(1S)-1-(2-pyrimidn-2-yl-1,2,4-triazol-3-yl)ethyl]-6-(trifluoromethyl)quinolin-4-amine]
≥ 80%: percent control (mortality or growth inhibition) at 200 ppm [1] | percent control (mortality, anti-feedant effect or growth inhibition) at 200 ppm [2] | percent control (mortality or growth inhibition) at 200 ppm [3] | percent control (mortality, anti-feedant effect or growth inhibition) at 200 ppm [4]

CC(c1ncnn1-c1ccc(C#N)cn1)N(C)c1ncnc2c(Br)cc(Br)cc12 (stereo not drawn) [P.257, 6-[5-[1-[(6,8-dibromoquinazolin-4-yl)-methyl-amino]ethyl]-1,2,4-triazol-1-yl]pyridin-3-carbonitrile]
≥ 80%: percent control (mortality or growth inhibition) at 200 ppm [1] | percent control (mortality, anti-feedant effect or growth inhibition) at 200 ppm [2] | percent control (mortality or growth inhibition) at 200 ppm [3] | percent control (mortality, anti-feedant effect or growth inhibition) at 200 ppm [4]

CC(c1nccnc1-c1ccc(OC(F)F)cn1)N(C)c1ncnc2c(C(F)(F)F)cc(Br)cc12 (stereo not drawn) [P.273, 6-bromo-N-[1-[3-[5-(difluoromethoxy)-2-pyridyl]pyrazin-2-yl]ethyl]-N-methyl-8-(trifluoromethyl)quinazolin-4-amine]
≥ 80%: percent control (mortality or growth inhibition) at 200 ppm [1] | percent control (mortality, anti-feedant effect or growth inhibition) at 200 ppm [2] | percent control (mortality or growth inhibition) at 200 ppm [3] | percent control (mortality, anti-feedant effect or growth inhibition) at 200 ppm [4]

CC(Nc1ncnc2c(Cl)cc(C(F)(F)F)cc12)c1ncnn1-c1ccc(F)cn1 (stereo not drawn) [P.274, 8-chloro-N-[1-[2-(5-fluroo-2-pyridyl)-1,2,4-triazol-3-yl]ethyl]-6-(trifluoromethyl)quinazolin-4-amine]
≥ 80%: percent control (mortality or growth inhibition) at 200 ppm [1] | percent control (mortality, anti-feedant effect or growth inhibition) at 200 ppm [2] | percent control (mortality or growth inhibition) at 200 ppm [3] | percent control (mortality, anti-feedant effect or growth inhibition) at 200 ppm [4]
